Assay results as given in patent publication US7294687B2, “Parenteral formulations of a peptide for the treatment of systemic lupus erythematosus” (TEVA Pharmaceutical Industries, Ltd., priority 2003, dated 2007).

Columns and labels:
[1] = system: IL-2 secretion from Compound 1 reference standard (RS) specific T-cells; assay: Inhibition of IL-2 secretion from Compound 1 RS specific T-cells following s.c. treatment, ELISA; format: in vivo, mice; conditions: at the range of 5-100 μg/ml activator
From the text: The biological activity was monitored by inhibition of IL-2 secretion from Compound 1 reference standard (RS) specific T-cells following subcutaneous (s.c.) treatment with the lyophilized compound solution, i.e. the drug product (DP), at two concentrations. The results of the treatment are compared to those of treating mice with Compound 1 (RS) in phosphate buffered saline (PBS).

[2] = system: IFN-γ secretion by LN cells; assay: IFN-γ secretion by cultured LN cells of immunized and treated mice, ELISA; format: in vivo, BALB/c mice
Protocol: A group of 20 mice were immunized with 50 μg/mouse of Compound 1 RS. The immunized mice were allocated to five treatment groups as follows: placebo, 25, 50, 100 and 200 μg/mouse of Compound 1 DP (subcutaneous administration). Ten days post immunization and treatment, LN was extracted and single cell suspension was prepared. The in-vitro secretion of IFN-γ and TGF-β by the cultured cells in response to activation with several concentrations of Compound 1 RS was then measured. [table] [table] […] Mice were sacrificed by cervical dislocation. LN were extracted from the hind legs and were transferred to a sterile petri dish containing about 5 mL RPMI. The cells were extracted by gentle squeezing of the tissue against a 200 micrometer mesh stainless steel net. The cells were collected and centrifuged at 300 G for 10 minutes at RT. Single cell suspensions were prepared from pooled LN of each experimental group. […] Secretion of IFN-γ and TGF-β, as indication of cellular response, were determined by ELISA of culture media (48 hrs for IFN-γ and 72 hrs for TGF-β). [table]

[3] = system: SLE-prone (NZBxNZW)F1 female mouse; assay: Intensity of immune complex deposits (ICD) in kidneys; format: in vivo, (NZBxNZW)F1 mice
Protocol: (§1) The same batch of drug substance was used in this study and in the first Phase I clinical trial with Compound 1. The mice were followed for anti-dsDNA antibodies and for proteinuria. When the mice were sacrificed, the intensity of ICD was determined in kidneys.

[4] = system: SLE-prone (NZBxNZW)F1 female mouse; assay: Anti-dsDNA antibodies in SLE-prone mice; format: in vivo, (NZBxNZW)F1 mice; conditions: 25 or 50 μg/mouse in Captisol®; after 10 treatment injections; vs Captisol® alone
Protocol: as §1

[5] = system: SLE subjects; assay: Phase Ia single dose clinical study, tolerability and safety; format: in vivo, human
Protocol: The following safety parameters were assessed at Screening, during the hospitalization and at follow-up visits including Termination visit: vital signs (systolic blood pressure, diastolic blood pressure, pulse, oxygen saturation, temperature and weight), 12-lead ECG, change in physical examination and clinical routine laboratory safety tests. Adverse events were recorded at the Dosing Day and at each visit thereafter.

[6] = system: SLE subjects; assay: Phase Ib multiple dose clinical study, tolerability and safety; format: in vivo, human; conditions: multiple subcutaneous doses of 0.5, 1 or 2.5 mg in 120 mg Captisol®; 12 sc injections
Protocol: This study is being performed in order to evaluate the safety and tolerability of repeated Compound 1 sc administration to SLE subjects. […] The investigational product is administered every other day (excluding weekends) for a total of 12 sc injections, i.e. 3 doses a week for 4 weeks. Subjects are monitored on planned visits scheduled at 2, 4, 8 and 12 weeks after start of dosing. Safety and tolerability are evaluated using tests similar to those described in the Phase Ia Clinical Study above.

[7] = Stability of Compound 1 versus pH, initial tests; format: physicochemical; conditions: basic pH range
Protocol: Thus, several buffers and pH adjustment agents were tested, including acetate buffer, citrate buffer and sodium carbonate. None of the initially tested buffers achieved the desired peptide solubility level. […] Nevertheless, at the initial stage, formulations with acetate buffer and citrate buffer (with Mannitol as a tonicity agent) were selected for initial toxicology studies. These formulations were tested for biological activity and proven active.

[8] = system: peripheral blood lymphocytes (PBL) of SLE subjects; conditions: Compound 1 in captisol®, throughout the study period
[9] = system: Balb/c mice and SLE-prone (NZBxNZW)F1 mice; conditions: cited from earlier work
[10] = system: peripheral blood lymphocytes (PBL) of SLE patients; conditions: cited from earlier work
[11] = single s.c. dose 0.5, 1 or 2.5 mg in Captisol®
[12] = single s.c. dose 0.5, 1 or 2.5 mg in Captisol®, vs placebo

H-GYYWSWIRQPPGKGEEWIG-OH [Compound 1]
Average inhibition (%) of IL-2 secretion ([1]; treatment 50 μg/mouse s.c.): 45.6% | Average inhibition (%) of IL-2 secretion ([1]; treatment 200 μg/mouse s.c.): 60.4% | Final cytokine (IFN-γ secretion) ([2]; Compound 1 DP 25 μg/M s.c., 5 million cells/well, activation Compound 1 RS 3.125 μg/ml): BQL | Final cytokine (IFN-γ secretion) ([2]; Compound 1 DP 25 μg/M s.c., 5 million cells/well, activation Compound 1 RS 6.25 μg/ml): BQL | Final cytokine (IFN-γ secretion) ([2]; Compound 1 DP 25 μg/M s.c., 5 million cells/well, activation Compound 1 RS 12.5 μg/ml): 41.9 pg/mL | Final cytokine (IFN-γ secretion) ([2]; Compound 1 DP 25 μg/M s.c., 5 million cells/well, activation Compound 1 RS 50 μg/ml): 104.2 pg/mL | Final cytokine (IFN-γ secretion) ([2]; Compound 1 DP 25 μg/M s.c., 5 million cells/well, activation Compound 1 RS 100 μg/ml): 185.2 pg/mL | Final cytokine (IFN-γ secretion) ([2]; Compound 1 DP 25 μg/M s.c., 5 million cells/well, activation Compound 1 RS 25 μ/ml): 70.0 pg/mL | Final cytokine (IFN-γ secretion) ([2]; Compound 1 DP 25 μg/M s.c., 5 million cells/well, activation Con A): 2995.3 pg/mL | Final cytokine (IFN-γ secretion) ([2]; Compound 1 DP 50 μg/M s.c., 2.5 million cells/well, activation Compound 1 RS 3.125 μg/ml): 54.1 pg/mL | Final cytokine (IFN-γ secretion) ([2]; Compound 1 DP 50 μg/M s.c., 2.5 million cells/well, activation Compound 1 RS 6.25 μg/ml): 81.8 pg/mL | Final cytokine (IFN-γ secretion) ([2]; Compound 1 DP 50 μg/M s.c., 2.5 million cells/well, activation Compound 1 RS 12.5 μg/ml): 123.1 pg/mL | Final cytokine (IFN-γ secretion) ([2]; Compound 1 DP 50 μg/M s.c., 2.5 million cells/well, activation Compound 1 RS 50 μg/ml): 292.5 pg/mL | Final cytokine (IFN-γ secretion) ([2]; Compound 1 DP 50 μg/M s.c., 2.5 million cells/well, activation Compound 1 RS 100 μg/ml): 531.8 pg/mL | Final cytokine (IFN-γ secretion) ([2]; Compound 1 DP 50 μg/M s.c., 2.5 million cells/well, activation Compound 1 RS 25 μ/ml): 215.1 pg/mL | Final cytokine (IFN-γ secretion) ([2]; Compound 1 DP 50 μg/M s.c., 2.5 million cells/well, activation Con A): 356.2 pg/mL | Final cytokine (IFN-γ secretion) ([2]; Compound 1 DP 50 μg/M s.c., 5 million cells/well, activation Compound 1 RS 3.125 μg/ml): 76.2 pg/mL | Final cytokine (IFN-γ secretion) ([2]; Compound 1 DP 50 μg/M s.c., 5 million cells/well, activation Compound 1 RS 6.25 μg/ml): 109.2 pg/mL | Final cytokine (IFN-γ secretion) ([2]; Compound 1 DP 50 μg/M s.c., 5 million cells/well, activation Compound 1 RS 12.5 μg/ml): 179.5 pg/mL | Final cytokine (IFN-γ secretion) ([2]; Compound 1 DP 50 μg/M s.c., 5 million cells/well, activation Compound 1 RS 50 μg/ml): 373.4 pg/mL | Final cytokine (IFN-γ secretion) ([2]; Compound 1 DP 50 μg/M s.c., 5 million cells/well, activation Compound 1 RS 100 μg/ml): 547.0 pg/mL | Final cytokine (IFN-γ secretion) ([2]; Compound 1 DP 50 μg/M s.c., 5 million cells/well, activation Compound 1 RS 25 μ/ml): 277.9 pg/mL | Final cytokine (IFN-γ secretion) ([2]; Compound 1 DP 50 μg/M s.c., 5 million cells/well, activation Con A): 4837.0 pg/mL | Final cytokine (IFN-γ secretion) ([2]; Compound 1 DP 100 μg/M s.c., 2.5 million cells/well, activation Compound 1 RS 3.125 μg/ml): 64.5 pg/mL | Final cytokine (IFN-γ secretion) ([2]; Compound 1 DP 100 μg/M s.c., 2.5 million cells/well, activation Compound 1 RS 6.25 μg/ml): 116.1 pg/mL | Final cytokine (IFN-γ secretion) ([2]; Compound 1 DP 100 μg/M s.c., 2.5 million cells/well, activation Compound 1 RS 12.5 μg/ml): 180.9 pg/mL | Final cytokine (IFN-γ secretion) ([2]; Compound 1 DP 100 μg/M s.c., 2.5 million cells/well, activation Compound 1 RS 50 μg/ml): 518.3 pg/mL | Final cytokine (IFN-γ secretion) ([2]; Compound 1 DP 100 μg/M s.c., 2.5 million cells/well, activation Compound 1 RS 100 μg/ml): 582.7 pg/mL | Final cytokine (IFN-γ secretion) ([2]; Compound 1 DP 100 μg/M s.c., 2.5 million cells/well, activation Compound 1 RS 25 μ/ml): 262.8 pg/mL | Final cytokine (IFN-γ secretion) ([2]; Compound 1 DP 100 μg/M s.c., 2.5 million cells/well, activation Con A): 337.4 pg/mL | Final cytokine (IFN-γ secretion) ([2]; Compound 1 DP 100 μg/M s.c., 5 million cells/well, activation Compound 1 RS 3.125 μg/ml): 90.8 pg/mL | Final cytokine (IFN-γ secretion) ([2]; Compound 1 DP 100 μg/M s.c., 5 million cells/well, activation Compound 1 RS 6.25 μg/ml): 157.8 pg/mL | Final cytokine (IFN-γ secretion) ([2]; Compound 1 DP 100 μg/M s.c., 5 million cells/well, activation Compound 1 RS 12.5 μg/ml): 257.1 pg/mL | Final cytokine (IFN-γ secretion) ([2]; Compound 1 DP 100 μg/M s.c., 5 million cells/well, activation Compound 1 RS 50 μg/ml): 739.7 pg/mL | Final cytokine (IFN-γ secretion) ([2]; Compound 1 DP 100 μg/M s.c., 5 million cells/well, activation Compound 1 RS 100 μg/ml): 995.5 pg/mL | Final cytokine (IFN-γ secretion) ([2]; Compound 1 DP 100 μg/M s.c., 5 million cells/well, activation Compound 1 RS 25 μ/ml): 421.7 pg/mL | Final cytokine (IFN-γ secretion) ([2]; Compound 1 DP 100 μg/M s.c., 5 million cells/well, activation Con A): 10126.8 pg/mL | Final cytokine (IFN-γ secretion) ([2]; Compound 1 DP 200 μg/M s.c., 2.5 million cells/well, activation Compound 1 RS 3.125 μg/ml): 103.9 pg/mL | Final cytokine (IFN-γ secretion) ([2]; Compound 1 DP 200 μg/M s.c., 2.5 million cells/well, activation Compound 1 RS 6.25 μg/ml): 126.1 pg/mL | Final cytokine (IFN-γ secretion) ([2]; Compound 1 DP 200 μg/M s.c., 2.5 million cells/well, activation Compound 1 RS 12.5 μg/ml): 129.0 pg/mL | Final cytokine (IFN-γ secretion) ([2]; Compound 1 DP 200 μg/M s.c., 2.5 million cells/well, activation Compound 1 RS 50 μg/ml): 378.1 pg/mL | Final cytokine (IFN-γ secretion) ([2]; Compound 1 DP 200 μg/M s.c., 2.5 million cells/well, activation Compound 1 RS 100 μg/ml): 524.1 pg/mL | Final cytokine (IFN-γ secretion) ([2]; Compound 1 DP 200 μg/M s.c., 2.5 million cells/well, activation Compound 1 RS 25 μ/ml): 240.3 pg/mL | Final cytokine (IFN-γ secretion) ([2]; Compound 1 DP 200 μg/M s.c., 2.5 million cells/well, activation Con A): BQL | Final cytokine (IFN-γ secretion) ([2]; Compound 1 DP 200 μg/M s.c., 5 million cells/well, activation Compound 1 RS 3.125 μg/ml): 204.4 pg/mL | Final cytokine (IFN-γ secretion) ([2]; Compound 1 DP 200 μg/M s.c., 5 million cells/well, activation Compound 1 RS 6.25 μg/ml): 244.1 pg/mL | Final cytokine (IFN-γ secretion) ([2]; Compound 1 DP 200 μg/M s.c., 5 million cells/well, activation Compound 1 RS 12.5 μg/ml): 466.1 pg/mL | Final cytokine (IFN-γ secretion) ([2]; Compound 1 DP 200 μg/M s.c., 5 million cells/well, activation Compound 1 RS 50 μg/ml): 922.5 pg/mL | Final cytokine (IFN-γ secretion) ([2]; Compound 1 DP 200 μg/M s.c., 5 million cells/well, activation Compound 1 RS 100 μg/ml): 1006.2 pg/mL | Final cytokine (IFN-γ secretion) ([2]; Compound 1 DP 200 μg/M s.c., 5 million cells/well, activation Compound 1 RS 25 μ/ml): 660.5 pg/mL | Final cytokine (IFN-γ secretion) ([2]; Compound 1 DP 200 μg/M s.c., 5 million cells/well, activation Con A): 7722.8 pg/mL | inhibition of IFN-γ secretion ([2]; all the doses used for treatment (25-200 μg/mouse)): Significant inhibition | ICD (Mean ± SEM) ([3]; 50 μg/mouse in Captisol ®, intensity scale 0 = none to 3 = severe/extremely intense): 1.90 ± 0.23 | intensity of immune complex deposits in kidney sections ([3]; 25 or 50 μg/mouse dissolved in Captisol®, FIG. 6): much lower than that observed in the control group | levels of dsDNA-specific antibodies [4]: no significant differences between groups | QTc change from baseline [5, 11]: ≤ 60 ms | serious adverse event (SAE) or AE classified as severe [5, 11]: No serious adverse event (SAE) or AE classified as severe occurred | vital signs parameters (systolic and diastolic blood pressure, pulse, oxygen saturation) [5, 11]: No clinically significant effect | categorical ECG measurements and digitized ECG parameters [5, 12]: No differences of clinical significance | incidence of AEs [5, 12]: no prominent difference | safety and tolerability, Phase Ia ([5]; single subcutaneous dose of 0.5, 1 or 2.5 mg in 120 mg Captisol®): safe and well tolerated | safety and tolerability, Phase Ib [6]: safe and well tolerated | stability versus pH [7]: less stable | immunological response to TTX recall antigen [8]: did not change the immunological response to TTX recall antigen | SLE related findings: immune complex deposits (ICD) in the kidney, proteinuria and leukopenia ([9]; Balb/c and (NZBxNZW)F1 mice): significantly reduced | disease manifestations of mice afflicted with spontaneous or experimental SLE ([9]; mouse, in vivo): ameliorate disease manifestations | proliferative response of PBL of SLE patients to the human anti-DNA 16/6Id mAB [10]: inhibit the proliferative response
